Measurements as given in patent US9938261B2, “Heterocyclic compounds and methods of use thereof” (AMBIT BIOSCIENCES CORPORATION, priority 2011, dated 2018).

Experiments:
M-NFS-60 cells = assay: M-NFS-60 cell proliferation assay (Alamar Blue); format: cell-based, mouse; settings: Mus musculus; M-NFS-60 cell proliferation; read-out: CSF1R M-NFS-60 CTB:IC50
Method in brief: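 Alamar Blue reduction (3 h; 560/590 nm) measured viability after 72 h, 37 °C treatment with nine half-log compound concentrations at 0.5% DMSO. Cells: M-CSF-dependent (20 ng/mL) murine M-NFS-60 in RPMI plus 10% FBS. IC50s, averaged from duplicates, reflect half-maximal inhibition of proliferation relative to control.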

KIT = molecular target: T1, KIT (Homo sapiens, UniProt P10721); assay: Competition binding assay, KIT Kd; settings: competition binding
T1 construct: made in house
Method in brief: (§1)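 Kinases, either T7 phage fusions or HEK-293-expressed and DNA-tagged, competed with test compounds for immobilized biotinylated affinity ligand on streptavidin beads in binding buffer (20% SeaBlock, 0.17×PBS, 0.05% Tween 20, 6 mM DTT). After 1 hour at room temperature, bead-bound kinase was eluted and quantified by qPCR; Kd from eleven-point threefold dilutions.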

FLT3 = molecular target: T2, FLT3 (Homo sapiens, UniProt P36888); assay: Competition binding assay, FLT3 Kd; settings: competition binding
T2 construct: made in house
T2 sequence (P36888 27-993): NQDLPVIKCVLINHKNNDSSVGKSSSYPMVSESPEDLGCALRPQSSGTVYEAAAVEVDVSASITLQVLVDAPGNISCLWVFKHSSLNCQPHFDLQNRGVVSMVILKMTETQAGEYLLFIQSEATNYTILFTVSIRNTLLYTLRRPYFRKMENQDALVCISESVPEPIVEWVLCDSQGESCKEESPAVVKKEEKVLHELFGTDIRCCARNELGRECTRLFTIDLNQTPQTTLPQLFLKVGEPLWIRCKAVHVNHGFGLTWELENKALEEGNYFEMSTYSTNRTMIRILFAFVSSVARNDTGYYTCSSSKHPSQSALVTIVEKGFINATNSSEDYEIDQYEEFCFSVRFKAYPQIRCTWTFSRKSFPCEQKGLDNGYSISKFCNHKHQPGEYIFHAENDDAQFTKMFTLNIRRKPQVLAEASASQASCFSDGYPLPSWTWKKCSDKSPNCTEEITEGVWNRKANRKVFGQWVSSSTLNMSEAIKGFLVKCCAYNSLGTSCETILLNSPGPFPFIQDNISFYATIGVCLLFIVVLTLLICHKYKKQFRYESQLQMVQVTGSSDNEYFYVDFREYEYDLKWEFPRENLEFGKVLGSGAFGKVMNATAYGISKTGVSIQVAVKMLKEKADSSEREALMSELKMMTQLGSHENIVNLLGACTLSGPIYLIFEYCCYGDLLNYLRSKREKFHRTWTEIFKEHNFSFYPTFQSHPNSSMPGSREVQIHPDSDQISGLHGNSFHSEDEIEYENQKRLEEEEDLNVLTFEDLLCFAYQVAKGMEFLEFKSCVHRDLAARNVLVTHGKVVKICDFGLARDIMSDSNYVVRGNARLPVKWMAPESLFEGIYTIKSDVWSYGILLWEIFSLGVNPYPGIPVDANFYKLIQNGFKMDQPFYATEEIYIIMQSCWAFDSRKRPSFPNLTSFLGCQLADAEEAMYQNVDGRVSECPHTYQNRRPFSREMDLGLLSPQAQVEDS
Method in brief: as §1

[1] = molecular target: kinase panel containing either 386 or 392 distinct kinases; assay: Kinase selectivity score S10 from competition binding panel; settings: 10 μM, panel of 386 or 392 distinct kinases
Method in brief: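 S10 is the number of kinases with percent-of-control under 10, divided by all distinct wild-type kinases tested, from a single 10 μM concentration. Binding measured by qPCR of kinase recovered from ligand-coated beads after 1 h equilibrium at room temperature; kinases were phage fusions or DNA-tagged HEK-293 products.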

T1 sequence (P10721 26-976): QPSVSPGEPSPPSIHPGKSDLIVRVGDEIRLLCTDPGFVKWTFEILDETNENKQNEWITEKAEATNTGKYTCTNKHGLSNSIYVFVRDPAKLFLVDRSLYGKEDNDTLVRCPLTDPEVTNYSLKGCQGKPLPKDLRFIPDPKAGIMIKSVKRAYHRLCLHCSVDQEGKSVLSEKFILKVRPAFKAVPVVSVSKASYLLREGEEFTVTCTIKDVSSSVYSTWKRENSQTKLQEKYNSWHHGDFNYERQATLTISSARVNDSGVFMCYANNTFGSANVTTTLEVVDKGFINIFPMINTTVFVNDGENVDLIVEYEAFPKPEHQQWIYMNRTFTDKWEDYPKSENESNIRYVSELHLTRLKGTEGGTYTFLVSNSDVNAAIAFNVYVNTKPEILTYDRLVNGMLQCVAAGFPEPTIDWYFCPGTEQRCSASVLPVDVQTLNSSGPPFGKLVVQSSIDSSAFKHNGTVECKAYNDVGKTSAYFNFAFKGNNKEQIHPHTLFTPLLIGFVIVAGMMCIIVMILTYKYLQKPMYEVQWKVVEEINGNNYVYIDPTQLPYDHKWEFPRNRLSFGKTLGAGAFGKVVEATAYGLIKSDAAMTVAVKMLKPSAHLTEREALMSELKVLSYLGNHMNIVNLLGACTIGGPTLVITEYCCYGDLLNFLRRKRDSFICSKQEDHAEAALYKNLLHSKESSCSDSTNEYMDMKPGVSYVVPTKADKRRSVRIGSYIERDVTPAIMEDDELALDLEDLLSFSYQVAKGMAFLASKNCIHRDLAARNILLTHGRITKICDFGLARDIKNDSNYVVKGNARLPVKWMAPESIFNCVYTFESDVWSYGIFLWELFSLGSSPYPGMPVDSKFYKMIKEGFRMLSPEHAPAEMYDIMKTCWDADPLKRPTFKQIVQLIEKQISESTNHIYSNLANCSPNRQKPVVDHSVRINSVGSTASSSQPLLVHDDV

Structure (SMILES) | Kd (KIT) [nM] | Kd (FLT3) [nM] | Kinase specificity S(10) [1] | IC50 (M-NFS-60 cells) [nM]
N#Cc1ccc2ncn(Cc3ccc4nc(N[C@@H]5CCCC[C@H]5O)sc4c3)c2c1 [Example 111, 1-((2-(((1R,2R)-2-hydroxycyclohexyl)amino)benzo[d]thiazol-6-yl)methyl)-1H-benzo[d]imidazole-6-carbonitrile] | 500 to 2000 | 1000 to 5000 | A (A≤0.01) | 50 to 400
CC(C)(O)c1cnc2c(c1)ncn2Cc1ccc2nc(N[C@@H]3CCCC[C@H]3O)sc2c1 [Example 109, (1R,2R)-2-((6-((6-(2-hydroxypropan-2-yl)-3H-imidazo[4,5-b]pyridin-3-yl)methyl)benzo[d]thiazol-2-yl)amino)cyclohexanol] | 100 to 500 | 1000 to 5000 | A (A≤0.01) | 50 to 400
N#Cc1ccc2c(c1)ncn2Cc1ccc2nc(N[C@@H]3CCCC[C@H]3O)sc2c1 [Example 108, 1-((2-(((1R,2R)-2-hydroxycyclohexyl)amino)benzo[d]thiazol-6-yl)methyl)-1H-benzo[d]imidazole-5-carbonitrile] | 500 to 2000 | > 5000 | A (A≤0.01) | 50 to 400
O[C@@H]1CCCC[C@H]1Nc1nc2ncc(Cn3cnc4cccnc43)cc2s1 [Example 114, (1R,2R)-2-((6-((3H-imidazo[4,5-b]pyridine-3-yl)methyl)thiazolo[4,5-b]pyridine-2-yl)amino)cyclohexanol] | 100 to 500 | 1000 to 5000 | A (A≤0.01) | > 1500
Oc1ccc2c(c1)ncn2Cc1ccc2nc(N[C@@H]3CCCC[C@H]3O)sc2c1 [Example 147, 1-((2-(((1R,2R)-2-hydroxycyclohexyl)amino)benzo[d]thiazol-6-yl)methyl)-1H-benzo[d]imidazol-5-ol] | ≤ 100 | 200 to 1000 | A (A≤0.01) | 50 to 400
O[C@@H]1CCCC[C@H]1Nc1nc2ccc(Cn3cnc4cc(F)cc(F)c43)cc2s1 [Example 148, (1R,2R)-2-((6-((5,7-difluoro-1H-benzo[d]imidazol-1-yl)methyl)benzo[d]thiazol-2-yl)amino)cyclohexanol] | ≤ 100 | 1000 to 5000 | A (A≤0.01) | 50 to 400
O[C@@H]1CCCC[C@H]1Nc1nc2ccc(Cn3cnc4cc(-n5cccn5)cnc43)cc2s1 [Example 141, (1R,2R)-2-((6-((6-(1H-pyrazol-1-yl)-3H-imidazo[4,5-b]pyridine-3-yl)methyl)benzo[d]thiazol-2-yl)amino)cyclohexanol] | ≤ 100 | 200 to 1000 | B (0.01<B≤0.02) | ≤ 50
O[C@@H]1CCCC[C@H]1Nc1nc2ccc(Cn3cnc4cc(F)c(F)cc43)cc2s1 [Example 128, (1R,2R)-2-((6-((5,6-difluoro-1H-benzo[d]imidazol-1-yl)methyl)benzo[d]thiazol-2-yl)amino)cyclohexanol] | 100 to 500 | > 5000 | B (0.01<B≤0.02) | 400 to 1500
O[C@@H]1CCCC[C@H]1Nc1nc2ccc(Cc3cnc4cccnn34)cc2o1 [Example 142, (1R,2R)-2-((6-(imidazo[1,2-b]pyridazin-3-ylmethyl)benzo[d]oxazol-2-yl)amino)cyclohexanol] | ≤ 100 | ≤ 200 | C (C>0.02) | 50 to 400
N#Cc1cc2ncn(Cc3ccc4nc(N[C@@H]5CCCC[C@H]5O)sc4c3)c2nc1C#N [Example 139, 3-((2-(((1R,2R)-2-hydroxycyclohexyl)amino)benzo[d]thiazol-6-yl)methyl)-3H-imidazo[4,5-b]pyridine-5,6-dicarbonitrile] | 100 to 500 | 200 to 1000 | A (A≤0.01) | 400 to 1500
O[C@@H]1CCCC[C@H]1Nc1nc2ccc(Cn3cnc4cncnc43)cc2o1 [Example 118, (1R,2R)-2-((6-((9H-purin-9-yl)methyl)benzo[d]oxazol-2-yl)amino)cyclohexanol] | 100 to 500 | 1000 to 5000 | A (A≤0.01) | 400 to 1500
COCCOc1ccn2c(Cc3ccc4nc(N[C@@H]5CCCC[C@H]5O)sc4c3)cnc2c1 [Example 153, (1R,2R)-2-((6-((7-(2-methoxyethoxy)imidazo[1,2-a]pyridin-3-yl)methyl)benzo[d]thiazol-2-yl)amino)cyclohexanol] | 500 to 2000 | 1000 to 5000 | A (A≤0.01) | 50 to 400

Second part, led by results:

Kd (KIT) [nM] | Kd (FLT3) [nM] | Kinase specificity S(10) [1] | Structure (SMILES) | IC50 (M-NFS-60 cells) [nM]
100 to 500 | 1000 to 5000 | A (A≤0.01) | O[C@@H]1CCCC[C@H]1Nc1nc2ccc(Cn3cnc4cc(-n5cncn5)ccc43)cc2s1 [Example 161, (1R,2R)-2-((6-((5-(1H-1,2,4-triazol-1-yl)-1H-benzo[d]imidazol-1-yl)methyl)benzo[d]thiazol-2-yl)amino)cyclohexanol] | 50 to 400
≤ 100 | 200 to 1000 | A (A≤0.01) | O=C(O)/C=C/c1ccc2c(c1)ncn2Cc1ccc2nc(N[C@@H]3CCCC[C@H]3O)sc2c1 [Example 224, (E)-3-(1-((2-(((1R,2R)-2-hydroxycyclohexyl)amino)benzo[d]thiazol-6-yl)methyl)-1H-benzo[d]imidazol-5-yl)acrylic acid] | > 1500
≤ 100 | 200 to 1000 | A (A≤0.01) | O[C@@H]1[C@H](O)CCC[C@H]1Nc1nc2ccc(Cn3cnc4cc(N5CCOCC5)ccc43)cc2s1 [Example 235, (1R,2S,3R)-3-((6-((5-morpholino-1H-benzo[d]imidazol-1-yl)methyl)benzo[d]thiazol-2-yl)amino)cyclohexane-1,2-diol] | 50 to 400
100 to 500 | 200 to 1000 | B (0.01<B≤0.02) | CNC(=O)c1ccc2c(c1)ncn2Cc1ccc2nc(N[C@@H]3CCCC[C@H]3O)sc2c1 [Example 173, 1-((2-(((1R,2R)-2-hydroxycyclohexyl)amino)benzo[d]thiazol-6-yl)methyl)-N-methyl-1H-benzo[d]imidazole-5-carboxamide] | 50 to 400
≤ 100 | 200 to 1000 | A (A≤0.01) | O[C@@H]1[C@H](O)CCC[C@H]1Nc1nc2ccc(Cc3cnc4cc(-n5cccn5)ccn34)cc2s1 [Example 229, (1R,2S,3R)-3-((6-((7-(1H-pyrazol-1-yl)imidazo[1,2-a]pyridin-3-yl)methyl)benzo[d]thiazol-2-yl)amino)cyclohexane-1,2-diol] | 50 to 400
100 to 500 | > 5000 | A (A≤0.01) | O[C@H]1CC[C@H](Nc2nc3ccc(Cn4cnc5cc(F)cnc54)cc3s2)CC1 [Example 163, trans-4-((6-((6-fluoro-3H-imidazo[4,5-b]pyridin-3-yl)methyl)benzo[d]thiazol-2-yl)amino)cyclohexanol] | > 1500
100 to 500 | 200 to 1000 | A (A≤0.01) | C=C(c1ccc2c(c1)ncn2Cc1ccc2nc(N[C@@H]3CCCC[C@H]3O)sc2c1)C(F)(F)F [Example 175, (1R,2R)-2-((6-((5-(3,3,3-trifluoroprop-1-en-2-yl)-1H-benzo[d]imidazol-1-yl)methyl)benzo[d]thiazol-2-yl)amino)cyclohexanol] | 50 to 400
≤ 100 | 200 to 1000 | B (0.01<B≤0.02) | O[C@@H]1CCCC[C@H]1Nc1nc2ccc(Cn3cnc4cc(-n5ccnc5)ccc43)cc2s1 [Example 226, (1R,2R)-2-((6-((5-(1H-imidazol-1-yl)-1H-benzo[d]imidazol-1-yl)methyl)benzo[d]thiazol-2-yl)amino)cyclohexanol] | ≤ 50
